# How the values were obtained:
# Type in all cases: in vitro ADME
# [1] = target: T1, hMDR1(P-gp) (Homo sapiens, UniProt P08183); assay: MDCK II-MDR1 drug transport assay (3H-digoxin); settings: for Transport activity of P-gp (main text: percentage inhibition): negative control = 100%
# T1 construct: host or cells: MDCKII-MDR1
# From the text: (§1) Drug transporters mediate the cellular uptake and efflux of their substrates. Therefore, cell lines overexpressing a drug transporter can be utilized to investigate inhibitors of the transporter by assessing changes in substrate uptake. For each drug transporter, we selected a well-characterized inhibitor as the positive control. Radiolabeled substrates were used to indicate the decrease in transport efficiency when the drug transporters were inhibited by PDQ or the control inhibitors.
# (§2) The concentrations of the control drugs and the substrates were stated in the assay details. Working solutions of the control inhibitors, the radiolabeled substrates, and each dose of PDQ were prepared at 200 times (200×) more concentrated solutions with DMSO for further dilution.
# (§3) Transporter-overexpressed cell lines. Human organic anion transporter-overexpressed cell lines MDCKII-OAT1 and S2-OAT3, human organic anion transport polypeptide-overexpressed cell lines HEK293A-OATP1B1 and HEK293A-OATP1B3, human organic cation transporter 2-overexpressed cell line S2-OCT2, and human multi-drug resistance protein MDR1 (or P-gp)-overexpressed cell line MDCKII-MDR1 were gifts from Japan Fuji Biomedical Co., Ltd. (Fuji, Shizuoka Prefecture, Japan). Breast cancer resistance protein-overexpressed vesicles (sf9-BCRP vesicle) were purchased from GenoMembrane Co., Ltd. (Yokohama, Kanagawa, Japan).
# All reagents were pre-warmed to 37 °C. […] The plate was incubated for 20 min. […] Each sample was replicated three times (N = 3).
# (§4) In = [100 × (U − U0)/(Uc − U0)]%(3)
# (§5) The results were expressed as mean ± standard deviation (SD) and analyzed with GraphPad Prism 8.0 software (CA, USA). The IC50 of PDQ was curve-fitted with the FORECAST function.
# [2] = target: T2, hOAT1 (Homo sapiens, UniProt Q4U2R8); assay: Substrates uptake assay, MDCKII-OAT1 cells (14C-PAH)
# T2 sequence (Q4U2R8 1-563): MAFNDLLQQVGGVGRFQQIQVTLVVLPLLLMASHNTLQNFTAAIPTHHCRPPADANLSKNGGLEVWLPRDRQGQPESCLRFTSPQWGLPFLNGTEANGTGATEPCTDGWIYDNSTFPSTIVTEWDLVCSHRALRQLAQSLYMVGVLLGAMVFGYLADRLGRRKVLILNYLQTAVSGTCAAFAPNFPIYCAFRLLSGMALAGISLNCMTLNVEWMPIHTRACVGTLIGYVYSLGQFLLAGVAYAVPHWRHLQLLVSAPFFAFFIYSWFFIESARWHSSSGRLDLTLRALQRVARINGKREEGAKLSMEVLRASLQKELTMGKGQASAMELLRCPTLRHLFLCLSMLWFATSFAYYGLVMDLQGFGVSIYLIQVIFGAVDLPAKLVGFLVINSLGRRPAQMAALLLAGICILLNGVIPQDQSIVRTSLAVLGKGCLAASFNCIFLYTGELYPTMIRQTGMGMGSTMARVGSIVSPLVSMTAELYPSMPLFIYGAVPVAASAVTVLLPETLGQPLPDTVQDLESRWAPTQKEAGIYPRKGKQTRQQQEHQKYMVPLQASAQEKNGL
# From the text: as §1, §2, §3
# Substrates uptake assay. In this assay, we studied the inhibition of PDQ against transporters OAT1, OAT3, OCT2, OATP1B1 and OATP1B3 with MDCKII-OAT1, S2-OAT3, S2-OCT2, HEK293A-OATP1B1and HEK293A-OATP1B3 cells, respectively. The radiolabeled substrates for OAT1, OAT3, OATP1B1, OATP1B3 and OCT2 were […], respectively (Table 5). Probenecid ([…]) was the positive control inhibitor of OAT1 and OAT3, while rifampicin ([…]) served as the control drug of OATP1B1 and OATP1B3. For OCT2, we used […] cimetidine to compare with the inhibitory effect of PDQ. Two times (2×) more concentrated working solutions of the drugs and the substrate were prepared with Dulbecco’s phosphate-buffered saline (DPBS, Gibco, Grand Island, NY, USA.). Then, an equal volume of 2× drug solution and 2× radiolabeled substrate solution were mixed as the working mix. All reagents were pre-warmed to 37 °C.
# The cells were digested with 0.05% trypsin/EDTA. The density of the single-cell suspension was adjusted to 2.0 × 10^5 cells/mL for S2 cells and to 1.5 × 10^5 cells/mL for MDCK II and HEK293A cells. The cell suspension was then added to the reservoirs of the 24-well plate for culture until full confluency. The medium in the wells was removed, and the wells were washed with DPBS. Then, the plate was incubated for 10 min with pre-warmed DPBS in the wells. After removing DPBS, […] of working mix was added to each well to initiate the substrate uptake process. The reaction time was 5 min for S2-OCT2 cells, while the other four types of cells were incubated with the reaction mix for 2 min. Cold DPBS was used to terminate the substrate transportation. To each well, […] NaOH ([…]) was added to lyse the cells. Then, […] cell lysate was transferred to the counting vials, and 3 mL scintillation cocktail (Aquasol-2, PerkinElmer, Waltham, MA, USA) was added. […] Each sample was replicated three times (N = 3).
# as §4, §5
# [3] = target: T3, hOCT2 (Homo sapiens, UniProt O15244); assay: Substrates uptake assay, S2-OCT2 cells (14C-TEA); settings: 14C-TEA 5 µM, 5 min
# T3 construct: host or cells: S2-OCT2
# T3 sequence (O15244 1-555): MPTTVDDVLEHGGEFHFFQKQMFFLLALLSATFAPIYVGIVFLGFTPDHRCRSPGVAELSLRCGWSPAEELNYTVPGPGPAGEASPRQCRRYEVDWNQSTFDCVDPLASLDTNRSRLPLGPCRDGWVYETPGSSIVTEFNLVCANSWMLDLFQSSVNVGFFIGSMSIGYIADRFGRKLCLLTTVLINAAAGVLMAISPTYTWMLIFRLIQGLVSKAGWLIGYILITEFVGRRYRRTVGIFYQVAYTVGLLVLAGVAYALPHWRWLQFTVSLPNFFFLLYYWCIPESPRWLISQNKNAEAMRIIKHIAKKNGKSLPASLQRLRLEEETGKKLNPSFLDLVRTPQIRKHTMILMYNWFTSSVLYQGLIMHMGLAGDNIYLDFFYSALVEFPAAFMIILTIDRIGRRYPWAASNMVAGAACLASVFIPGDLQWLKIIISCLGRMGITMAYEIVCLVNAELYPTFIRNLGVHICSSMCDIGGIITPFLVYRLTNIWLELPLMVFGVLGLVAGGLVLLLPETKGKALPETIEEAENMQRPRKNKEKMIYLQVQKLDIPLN
# T1 sequence (P08183 whole entry): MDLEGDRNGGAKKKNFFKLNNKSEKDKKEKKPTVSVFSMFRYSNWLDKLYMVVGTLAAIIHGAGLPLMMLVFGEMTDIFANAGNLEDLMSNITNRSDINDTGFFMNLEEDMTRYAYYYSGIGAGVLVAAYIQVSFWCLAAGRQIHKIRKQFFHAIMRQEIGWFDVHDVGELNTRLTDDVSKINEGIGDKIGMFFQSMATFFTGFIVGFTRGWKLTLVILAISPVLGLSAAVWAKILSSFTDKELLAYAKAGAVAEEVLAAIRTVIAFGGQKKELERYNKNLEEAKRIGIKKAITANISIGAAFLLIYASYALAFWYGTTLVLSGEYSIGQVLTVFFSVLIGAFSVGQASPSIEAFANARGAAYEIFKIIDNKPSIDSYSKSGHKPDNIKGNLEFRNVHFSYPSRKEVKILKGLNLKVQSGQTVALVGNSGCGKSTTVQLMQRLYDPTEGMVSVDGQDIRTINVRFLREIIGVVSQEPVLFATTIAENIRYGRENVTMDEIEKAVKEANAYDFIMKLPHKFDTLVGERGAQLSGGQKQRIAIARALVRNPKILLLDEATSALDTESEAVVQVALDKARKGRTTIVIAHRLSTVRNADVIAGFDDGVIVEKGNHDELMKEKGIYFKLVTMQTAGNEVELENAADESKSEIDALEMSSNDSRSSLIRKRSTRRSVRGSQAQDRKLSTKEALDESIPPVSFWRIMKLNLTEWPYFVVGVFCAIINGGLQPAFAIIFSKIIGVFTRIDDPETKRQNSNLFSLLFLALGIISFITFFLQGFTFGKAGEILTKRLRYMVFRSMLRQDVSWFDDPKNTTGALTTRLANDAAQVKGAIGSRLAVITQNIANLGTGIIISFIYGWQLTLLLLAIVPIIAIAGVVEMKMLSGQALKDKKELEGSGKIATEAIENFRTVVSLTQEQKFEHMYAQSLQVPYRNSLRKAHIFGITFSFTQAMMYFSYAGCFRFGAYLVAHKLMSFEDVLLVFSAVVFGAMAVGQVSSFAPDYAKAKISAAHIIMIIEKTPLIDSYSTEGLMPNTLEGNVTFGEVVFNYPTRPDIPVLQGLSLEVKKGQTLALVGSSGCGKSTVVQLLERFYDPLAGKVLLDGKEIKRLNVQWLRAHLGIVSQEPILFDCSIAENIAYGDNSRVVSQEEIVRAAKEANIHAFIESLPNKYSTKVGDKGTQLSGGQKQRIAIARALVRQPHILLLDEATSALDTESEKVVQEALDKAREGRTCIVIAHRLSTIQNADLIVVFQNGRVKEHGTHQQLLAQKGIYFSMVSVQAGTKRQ
smiles,measurement,setting,value
"CC(C)(O)[C@@H]1CC[C@@](C)([C@H]2CC[C@]3(C)[C@@H]2[C@H](O)C[C@@H]2[C@@]4(C)CC[C@H](O)C(C)(C)[C@@H]4CC[C@]23C)O1 [PDQ, (20S,24S)-dammar-20,24-epoxy-3β, 12β, 25-triol]",IC50,"[1]; MDCKII-MDR1, 25 μM 3H-digoxin, 15 min",410 nM
same,Transport activity of P-gp (main text: percentage inhibition),[1]; inhibitor 0.1 μM,57.5±7.1%
same,Transport activity of P-gp (main text: percentage inhibition),[1]; inhibitor 0.3 μM,57.0±9.2%
same,Transport activity of P-gp (main text: percentage inhibition),[1]; inhibitor 1 μM,30.8±6.4%
same,Transport activity of P-gp (main text: percentage inhibition),[1]; inhibitor 3 μM,23.2±7.1%
same,IC50,"[2]; MDCKII-OAT1, 14C-PAH 5 µM, 2 min",> 30 µM
same,DPM (14C-PAH uptake by OAT1),[2]; inhibitor 0.1 μM,540.3±39.2 DPM
same,DPM (14C-PAH uptake by OAT1),[2]; inhibitor 0.3 μM,566.0±44.8 DPM
same,DPM (14C-PAH uptake by OAT1),[2]; inhibitor 1 μM,547.7±68.8 DPM
same,DPM (14C-PAH uptake by OAT1),[2]; inhibitor 3 μM,496.3±38.1 DPM
same,DPM (14C-PAH uptake by OAT1),[2]; inhibitor 10 μM,558.7±19.7 DPM
same,DPM (14C-PAH uptake by OAT1),[2]; inhibitor 30 μM,460.3±5.7 DPM
same,IC50,[3],> 30 µM

# — paper PMC11173382, “In Vitro Investigations into the Potential Drug Interactions of Pseudoginsenoside DQ Mediated by Cytochrome P450 and Human Drug Transporters” (Molecules, 2024)
